# Measurements published in patent US20090076199A1, “RED DYE MIXTURE” (LANXESS DEUTSCHLAND GMBH, priority 2007, published 2009).
# Legend:
# Assay type in all cases: physicochemical
# [1] = Maximum solubility of the dyes in methyl benzoate and spectral data of the saturated solutions; conditions: for Solubility (maximum solubility): in methyl benzoate; for E11 = Extinction (absorbance) of 1 g of this solution in 100 ml of N-methyl-pyrrolidone, 1 cm cell: saturated solution of the dye alone in methyl benzoate
# Description: The maximum solubility of the dyes was determined in methyl benzoate.
# [2] = Mass colouring of polystyrene granules, injection moulding at 240° C., fastness; conditions: 0.02 g dye per 100 g polystyrene, transparent sheets
# Description: a) 100 g of polystyrene granules and 0.02 g of the dye from Example 4 are mixed intensely in a drum mixer for 15 min. The dry-stained granules are processed on a screw injection moulding machine at 240° C. This gives transparent bluish red sheets of very good light fastness and migration fastness.
# [3] = Mass colouring of polycarbonate, twin-screw extruder at 290° C., fastness; conditions: 0.03 g dye per 100 g polycarbonate
# Description: c) 100 g of a commercially customary polycarbonate are dry-mixed in granule form with 0.03 g of the dye from Example 4. The granules dusted in this way are homogenized in a twin-screw extruder at 290° C. This gives a transparent bluish red coloration with good light fastness and migration fastness. The coloured polycarbonate is extruded as a strand from the extruder and processed to granules. The granules can be processed by the typical methods of processing thermoplastic compounds.
# [4] = Mass colouring of transparent polyethylene terephthalate, twin-screw extruder at 280° C., fastness; conditions: 0.025 g dye per 100 g transparent polyethylene terephthalate
# Description: b) 0.025 g of the dye from Example 4 are mixed with 100 g of a transparent polyethylene terephthalate grade and the mixture is homogenized in a twin-screw extruder at 280° C. This gives a transparent bluish red coloration with good light fastness and migration fastness. After subsequent granulation the coloured plastic can be processed in accordance with the typical methods of thermoplastic shaping.
SMILES,Solubility (maximum solubility) [1],"E11 = Extinction (absorbance) of 1 g of this solution in 100 ml of N-methyl-pyrrolidone, 1 cm cell [1]",light fastness [2],migration fastness [2],light fastness [3],migration fastness [3],light fastness [4],migration fastness [4]
"O=C1c2c(Cl)c(Cl)c(Cl)c(Cl)c2C2=Nc3cccc4cccc(c34)N12 [Dye (7), reference compound]",0.107 g/100 ml,0.17,,,,,,
Nc1c(OCCOc2ccc(OCCOc3cc(O)c4c(c3N)C(=O)c3ccccc3C4=O)cc2)cc(O)c2c1C(=O)c1ccccc1C2=O [Example 4],,,very good,very good,good,good,good,good
Nc1c(Oc2ccc(C3(c4ccc(Oc5cc(O)c6c(c5N)C(=O)c5ccccc5C6=O)cc4)CCCCC3)cc2)cc(O)c2c1C(=O)c1ccccc1C2=O [Dye (15)],0.57 g/100 ml,1.8,,,,,,
